Measured values: the NIST ThermoML archive (doi:10.1021/je800021r)
“And” between values parts separate entries of the source, which are not always exact repeats. Equal entries are not always repeated. Numbers after ± are expanded uncertainties.

Details: Liquid, Ebulliometric method (Recirculating still)

| Structure (SMILES) | vapor or sublimation pressure (364.5 K) | vapor or sublimation pressure (364.51 K) | vapor or sublimation pressure (364.52 K) |
| --- | --- | --- | --- |
| CC(C)(C)O [2-methylpropan-2-ol] | 142.6 ± 1.5 kPa |  |  |
| CC(C)C [2-methylpropane] | 1685.6 ± 7.4 kPa | 1686.4 ± 7.4 kPa and 1686.3 ± 7.4 kPa | 1686.3 ± 7.4 kPa |
| CCC(C)O (configuration not stated) [butan-2-ol] |  | 74.1 ± 1.4 kPa |  |
| CO [methanol] |  | 267.5 ± 1.8 kPa |  |
| CC(C)O [propan-2-ol] |  | 144.2 ± 1.5 kPa |  |
